In patent US8101774B2, “Ester derivatives and medicinal use thereof” (Japan Tobacco Inc., priority 2004, dated 2012):

How the values were obtained:
[1] = Metabolic stability test in liver S9; type: in vitro ADME; settings: human liver S9 2 mg protein/mL, 37° C.
Protocol: Human liver S9 (final concentration: 2 mg protein/mL), was suspended in 100 mM potassium phosphate buffer (pH 7.4, containing β-nicotinamide adenine dinucleotide phosphate: 1.3 mM, D-glucose-6-phosphate: 3.3 mM, magnesium chloride: 3.3 mM, glucose-6-phosphate dehydrogenase: 0.4 U/mL). The suspension was mixed with a solution of a sample dissolved in DMSO. The solution was incubated at 37° C. for 0, 10 and 60 minutes, and an acetonitrile containing formic acid (final concentration: 0.1%) was added thereto. The solutions were centrifuged, and the concentration of the sample (unchanged form) in the supernatant was determined by high performance liquid chromatography/mass spectrometry (LC/MS). Based on the data obtained, remaining rate (%) was calculated according to the following equation. Remaining rate(%)=amount of sample 0, 10, or 60 minutes after incubation/amount of sample at zero time after incubation×100

[2] = biological target: T1, Microsomal triglyceride transfer protein (MTP) from human small intestine microsome (Homo sapiens, UniProt P55157); test: Inhibition test of interliposomal triglyceride (TG) transfer activity by MTP; type: biochemical; settings: purified MTP from human small intestine microsome, 37° C., 1.5 hours
T1 construct: Human small intestine microsome was dialyzed against 10 mM phosphate buffer; tissue Tissue Transforming Technologies, Inc; host or cells: human small intestine microsome
In short: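 DEAE-purified human small intestine MTP (50 μL of 20 μg/mL) incubated 1.5 hours at 37° C with ^14C-triolein donor and unlabelled acceptor SUV liposomes in pH 7.4 Tris buffer with 0.5% BSA. Donor removed on DEAE cellulose; acceptor radioactivity counted, blank-corrected against DMSO control, giving percent inhibition and IC50.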

[3] = Metabolic stability test in plasma; type: in vitro ADME; settings: 37° C.
Protocol: A sample dissolved in DMSO was added to plasma of human or animal species (mouse and hamster). The solutions were incubated at 37° C. for 0, 10 and 60 minutes, and acetonitrile containing formic acid (final concentration: 0.1%) was added thereto. The solutions were centrifuged, and the concentration of the sample (unchanged form) in the supernatant was determined by high performance liquid chromatography/mass spectrometry (LC/MS). Based on the data obtained, the remaining rate (%) was calculated according to the following equation. Remaining rate(%)=amount of sample 0, 10, or 60 minutes after incubation/amount of sample at zero time after incubation×100 With respect to the compounds obtained in Working Examples according to the present invention (Compounds 1-1 to 1-115, 2-1, 3-1, 3-2, and 4-1 to 4-4), the results of the remaining rate in human liver S9 and plasma are shown in Tables 28 to 32.

[4] = Stability test in buffer (pH 7.4); type: physicochemical; settings: 100 mM potassium phosphate buffer (pH 7.4):acetonitrile 7:3, 37° C.
Protocol: In the tables, Buf. remaining rate was determined by stability test in buffer (pH 7.4) as described below. A sample dissolved in DMSO was mixed with a mixed solution of 100 mM potassium phosphate buffer and acetonitrile in the ratio of 7:3 (v/v). The mixture was incubated at 37° C. for 0, 10, and 60 minutes, and acetonitrile containing formic acid (final concentration: 0.1%) was added thereto. The solution was centrifuged, and the concentration of the sample (unchanged form) in the supernatant was determined by high performance liquid chromatography/mass spectrometry (LC/MS). Based on the data obtained, Buf. remaining rate (%) was calculated according to the following equation. Buf. remaining rate(%)=amount of sample 0, 10, or 60 minutes after incubation/amount of sample at zero time after incubation×100

T1 sequence (P55157 19-894): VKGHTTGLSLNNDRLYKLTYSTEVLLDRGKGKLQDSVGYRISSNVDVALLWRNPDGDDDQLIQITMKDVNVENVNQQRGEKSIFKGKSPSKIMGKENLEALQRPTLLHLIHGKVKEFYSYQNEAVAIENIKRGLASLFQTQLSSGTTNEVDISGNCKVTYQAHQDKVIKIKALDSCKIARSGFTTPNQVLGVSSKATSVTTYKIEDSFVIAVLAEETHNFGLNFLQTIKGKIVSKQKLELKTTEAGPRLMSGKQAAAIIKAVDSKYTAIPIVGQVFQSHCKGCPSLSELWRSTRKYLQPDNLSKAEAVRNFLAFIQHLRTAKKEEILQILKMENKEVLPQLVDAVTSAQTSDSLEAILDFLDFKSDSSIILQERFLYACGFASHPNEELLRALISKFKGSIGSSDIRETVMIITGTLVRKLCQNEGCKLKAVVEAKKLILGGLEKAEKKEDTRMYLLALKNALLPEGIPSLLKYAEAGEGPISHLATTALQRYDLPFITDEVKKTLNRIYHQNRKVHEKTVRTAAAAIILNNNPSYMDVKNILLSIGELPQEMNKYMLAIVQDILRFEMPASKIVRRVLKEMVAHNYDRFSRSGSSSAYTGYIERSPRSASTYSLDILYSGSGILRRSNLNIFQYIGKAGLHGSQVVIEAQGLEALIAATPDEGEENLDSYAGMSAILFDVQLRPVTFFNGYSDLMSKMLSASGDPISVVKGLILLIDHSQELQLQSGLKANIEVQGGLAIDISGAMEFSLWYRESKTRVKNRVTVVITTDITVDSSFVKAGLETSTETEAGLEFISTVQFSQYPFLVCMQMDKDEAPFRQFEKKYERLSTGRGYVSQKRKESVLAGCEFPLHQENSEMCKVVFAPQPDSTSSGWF
T1 sequence (P07237 18-508 partner): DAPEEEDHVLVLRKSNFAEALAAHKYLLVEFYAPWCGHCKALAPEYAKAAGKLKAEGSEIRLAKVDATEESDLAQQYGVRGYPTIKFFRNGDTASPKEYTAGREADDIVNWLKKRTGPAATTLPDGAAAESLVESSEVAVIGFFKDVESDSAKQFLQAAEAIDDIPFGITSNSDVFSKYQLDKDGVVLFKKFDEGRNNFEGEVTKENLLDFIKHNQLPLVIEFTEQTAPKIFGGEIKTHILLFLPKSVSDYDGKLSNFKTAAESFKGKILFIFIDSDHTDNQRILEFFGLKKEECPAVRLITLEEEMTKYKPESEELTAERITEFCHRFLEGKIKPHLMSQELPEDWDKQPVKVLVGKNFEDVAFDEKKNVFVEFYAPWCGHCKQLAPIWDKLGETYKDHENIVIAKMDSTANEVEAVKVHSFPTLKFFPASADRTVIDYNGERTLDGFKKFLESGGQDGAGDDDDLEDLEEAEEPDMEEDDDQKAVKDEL

| Structure (SMILES) | Remaining rate in human liver S9 (%/10 min) ([1]; 10 min) | Remaining rate in human liver S9 (%/60 min) ([1]; 60 min) | IC50 [2] | Remaining rate in human plasma (%/60 min) [3] | Buf. remaining rate (%/10 min) ([4]; 10 min) | Buf. remaining rate (%/60 min) ([4]; 60 min) |
| --- | --- | --- | --- | --- | --- | --- |
| COC(=O)c1ccc(OC(=O)CCCc2ccc(NC(=O)c3ccccc3-c3ccc(C(F)(F)F)cc3)c(C(=O)N(C)C)c2)c(C)c1 [Compound 1-66, 4-[4-(3-dimethylcarbamoyl-4-{(4′-trifluoromethylbiphenyl-2-carbonyl)amino}phenyl)butyryloxy]-3-methylbenzoic acid methyl ester] | 3% | 0% | < 10 nM | 8% | 101% | 103% |
| COC(=O)c1cc(C)c(OC(=O)CCCc2ccc(NC(=O)c3ccc(C)nc3-c3ccc(C(F)(F)F)cc3)c(C(=O)N(C)C)c2)c(C(=O)OC)c1 [Compound 1-110, 4-[4-(3-dimethylcarbamoyl-4-{[6-methyl-2-(4-trifluoromethylphenyl)pyridine-3-carbonyl]amino}phenyl)butyryloxy]-5-methylisophthalic acid dimethyl ester] | – | – | < 10 nM | – | – | – |
| CC(OC(=O)c1ccc(OC(=O)CCCc2ccc(NC(=O)c3ccccc3-c3ccc(C(F)(F)F)cc3)c(C(=O)N(C)C)c2)cc1)c1ccccc1 (stereo not drawn) [Compound 1-106, 4-[4-(3-dimethylcarbamoyl-4-{(4′-trifluoromethylbiphenyl-2-carbonyl)amino}phenyl)butyryloxy]benzoic acid 1-phenylethyl ester] | – | – | < 10 nM | – | – | – |
| CCc1cc(C(=O)OC)cc(Cl)c1OC(=O)CCCc1ccc(NC(=O)c2ccc(C)nc2-c2ccc(C(F)(F)F)cc2)c(C(=O)N(C)C)c1 [Compound 1-73, 3-chloro-4-[4-(3-dimethylcarbamoyl-4-{[6-methyl-2-(4-trifluoromethylphenyl)pyridine-3-carbonyl]amino}phenyl)butyryloxy]-5-ethylbenzoic acid methyl ester] | – | – | < 10 nM | – | – | – |
